Several values for one entry are separate records, joined by “and”; a condition that tells them apart may be missing. Equal values may be shown once. Toxic doses and inconclusive results are not listed. Cut-off read from the data, not from the text of the source: active = T/C of 150% or more; inactive = T/C below 125%.
Test system: L1210 leukemia ip in BDF1 mice, survival T/C
Assay: NCI In Vivo Anticancer Drug Screen. Data for tumor model L1210 Leukemia (intraperitoneal) in B6D2F1 (BDF1) mice
Conditions: endpoint: mean survival time, higher = longer survival
Summary of the method: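 Transplanted-tumor mice were given test agent; controls received vehicle only. Survival readings from the two groups were divided (treated over control).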

[1] = dose: 25.0 mg/kg/injection, schedule: Q04DX003 (ip), vehicle: saline
[2] = dose: 50.0 mg/kg/injection, schedule: Q04DX003 (ip), vehicle: saline
[3] = dose: 100.0 mg/kg/injection, schedule: Q01DX009 (ip), vehicle: saline
[4] = dose: 100.0 mg/kg/injection, schedule: Q04DX003 (ip), vehicle: saline
[5] = dose: 100.0 mg/kg/injection, schedule: Q01DX009 (ip), vehicle: Klucel (hydroxypropylcellulose) (HPC)
[6] = dose: 100.0 mg/kg/injection, schedule: Q04DX003 (ip), vehicle: Klucel (hydroxypropylcellulose) (HPC)
[7] = dose: 200.0 mg/kg/injection, schedule: Q04DX003 (ip), vehicle: Klucel (hydroxypropylcellulose) (HPC)
[8] = dose: 200.0 mg/kg/injection, schedule: Q01DX009 (ip), vehicle: Klucel (hydroxypropylcellulose) (HPC)
[9] = dose: 400.0 mg/kg/injection, schedule: Q01DX009 (ip), vehicle: Klucel (hydroxypropylcellulose) (HPC)
[10] = dose: 100.0 mg/kg/injection, schedule: Q01DX001 (ip), vehicle: carboxymethylcellulose (CMC)
[11] = dose: 200.0 mg/kg/injection, schedule: Q01DX001 (ip), vehicle: carboxymethylcellulose (CMC)
[12] = dose: 400.0 mg/kg/injection, schedule: Q01DX001 (ip), vehicle: carboxymethylcellulose (CMC)
[13] = dose: 100.0 mg/kg/injection, schedule: Q01DX001 (ip), vehicle: saline
[14] = dose: 200.0 mg/kg/injection, schedule: Q01DX001 (ip), vehicle: saline
[15] = dose: 400.0 mg/kg/injection, schedule: Q04DX003 (ip), vehicle: Klucel (hydroxypropylcellulose) (HPC)

Measured: T/C

COC(=O)c1cncn1C(C)c1ccccc1 (configuration not stated)
inactive: [1] 97 % of control | dose: 50.0 mg/kg/injection, schedule: Q01DX009 (ip), vehicle: saline 104 % of control | [2] 95 % of control | [3] 109 % of control | [4] 97 % of control and 101 % of control

C=C(C)C(=O)N(C)C
inactive: [3] 105 % of control | dose: 200.0 mg/kg/injection, schedule: Q01DX009 (ip), vehicle: saline 113 % of control | dose: 400.0 mg/kg/injection, schedule: Q01DX009 (ip), vehicle: saline 103 % of control

c1ccc2c(c1)C1c3ccccc3C2C2COCC12 (configuration not stated)
inactive: dose: 50.0 mg/kg/injection, schedule: Q01DX009 (ip), vehicle: Klucel (hydroxypropylcellulose) (HPC) 113 % of control | [5] 108 % of control | [6] 98 % of control | [7] 100 % of control

COc1ccc(Cl)cc1NC(=O)Oc1cc(C)c(Cl)c(C)c1
inactive: [5] 104 % of control | [8] 95 % of control | [9] 112 % of control

O=C1C(=O)c2cc(Br)cc([N+](=O)[O-])c2-c2ccc(Br)cc21
inactive: dose: 50.0 mg/kg/injection, schedule: Q01DX001 (ip), vehicle: carboxymethylcellulose (CMC) 95 % of control | [10] 106 % of control | [11] 101 % of control | [12] 97 % of control

CC(=O)C1Cc2ccccc2C1=O (configuration not stated)
inactive: dose: 50.0 mg/kg/injection, schedule: Q01DX001 (ip), vehicle: saline 100 % of control | [13] 97 % of control | [14] 106 % of control | dose: 400.0 mg/kg/injection, schedule: Q01DX001 (ip), vehicle: saline 108 % of control

CCOc1ccc(/C=N/NC(=O)CCCCCCCCC(=O)N/N=C/c2ccc(OCC)c(OC)c2)cc1OC
inactive: [5] 95 % of control | [8] 88 % of control | [9] 97 % of control

O=C1c2cccc(Sc3ccccc3)c2C(=O)c2c(Sc3ccccc3)cccc21
inactive: dose: 100.0 mg/kg/injection, schedule: Q04DX003 (ip), vehicle: saline with Tween-80 91 % of control | dose: 200.0 mg/kg/injection, schedule: Q04DX003 (ip), vehicle: saline with Tween-80 88 % of control | dose: 400.0 mg/kg/injection, schedule: Q04DX003 (ip), vehicle: saline with Tween-80 91 % of control

O=C(C[n+]1cccc(C(=O)Nc2ccc(Cl)cc2)c1)Nc1ccccc1
inactive: [4] 92 % of control | dose: 200.0 mg/kg/injection, schedule: Q04DX003 (ip), vehicle: saline 101 % of control

CCOC(=O)N1CCN(Cn2cc3c4c(cccc42)C2CC(C(=O)NC(C)C)CN(C)C2C3)CC1 (configuration not stated)
inactive: dose: 6.25 mg/kg/injection, schedule: Q04DX003 (ip), vehicle: saline 88 % of control | dose: 12.5 mg/kg/injection, schedule: Q04DX003 (ip), vehicle: saline 97 % of control | [1] 100 % of control | [2] 94 % of control | [4] 97 % of control

Nc1nc2c(=O)[nH]c(=O)[nH]c2n1C1OC(CO)C(O)C1O (configuration not stated)
inactive: [13] 102 % of control | [14] 111 % of control

O=S(=O)(OCCCC1CC2C=CC1C2)c1ccc(Br)cc1 (configuration not stated)
inactive: dose: 75.0 mg/kg/injection, schedule: Q01DX001 (ip), vehicle: carboxymethylcellulose (CMC) 104 % of control | dose: 75.0 mg/kg/injection, schedule: Q04DX003 (ip), vehicle: carboxymethylcellulose (CMC) 89 % of control | dose: 150.0 mg/kg/injection, schedule: Q01DX001 (ip), vehicle: carboxymethylcellulose (CMC) 91 % of control | dose: 150.0 mg/kg/injection, schedule: Q04DX003 (ip), vehicle: carboxymethylcellulose (CMC) 100 % of control | dose: 300.0 mg/kg/injection, schedule: Q04DX003 (ip), vehicle: carboxymethylcellulose (CMC) 98 % of control

O=[N+]([O-])c1ccc(S(=O)(=O)SC(F)(F)F)cc1
inactive: dose: 75.0 mg/kg/injection, schedule: Q01DX001 (ip), vehicle: saline 106 % of control | dose: 150.0 mg/kg/injection, schedule: Q01DX001 (ip), vehicle: saline 102 % of control

CCC[As](=O)(O)c1ccc(Cl)cc1
inactive: dose: 1.56 mg/kg/injection, schedule: Q01DX001 (ip), vehicle: Klucel (hydroxypropylcellulose) (HPC) 100 % of control | dose: 3.13 mg/kg/injection, schedule: Q01DX001 (ip), vehicle: Klucel (hydroxypropylcellulose) (HPC) 91 % of control | dose: 6.25 mg/kg/injection, schedule: Q01DX001 (ip), vehicle: Klucel (hydroxypropylcellulose) (HPC) 98 % of control | dose: 12.5 mg/kg/injection, schedule: Q01DX001 (ip), vehicle: Klucel (hydroxypropylcellulose) (HPC) 109 % of control | dose: 25.0 mg/kg/injection, schedule: Q01DX001 (ip), vehicle: Klucel (hydroxypropylcellulose) (HPC) 92 % of control

COc1cc([N+](=O)[O-])c(C=O)cc1O
inactive: dose: 100.0 mg/kg/injection, schedule: Q01DX009 (ip), vehicle: acetone 97 % of control | dose: 200.0 mg/kg/injection, schedule: Q01DX009 (ip), vehicle: acetone 100 % of control | dose: 400.0 mg/kg/injection, schedule: Q01DX009 (ip), vehicle: acetone 100 % of control

NNC(=O)C(Sc1ccccc1)c1ccccc1 (configuration not stated)
inactive: [6] 95 % of control | [7] 98 % of control | [15] 101 % of control

CN(C)CCCCC(C#N)(c1ccccc1)c1ccccc1
inactive: dose: 15.0 mg/kg/injection, schedule: Q01DX001 (ip), vehicle: saline 88 % of control | dose: 30.0 mg/kg/injection, schedule: Q01DX001 (ip), vehicle: saline 92 % of control

CCC(Oc1ccccc1OC)C(=O)O (configuration not stated)
inactive: dose: 100.0 mg/kg/injection, schedule: Q01DX001 (ip), vehicle: Klucel (hydroxypropylcellulose) (HPC) 105 % of control | dose: 200.0 mg/kg/injection, schedule: Q01DX001 (ip), vehicle: Klucel (hydroxypropylcellulose) (HPC) 103 % of control | dose: 400.0 mg/kg/injection, schedule: Q01DX001 (ip), vehicle: Klucel (hydroxypropylcellulose) (HPC) 103 % of control

O=C(NC1CCCCC1)NC1CCCCC1
inactive: dose: 100.0 mg/kg/injection, schedule: Q01DX009 (ip), vehicle: saline with Tween-80 95 % of control | dose: 200.0 mg/kg/injection, schedule: Q01DX009 (ip), vehicle: saline with Tween-80 88 % of control | dose: 400.0 mg/kg/injection, schedule: Q01DX009 (ip), vehicle: saline with Tween-80 87 % of control

COc1cc(OC)c(OCc2ccccc2)c(OC)c1
inactive: [10] 96 % of control | [11] 94 % of control | [12] 96 % of control

CCCCCCCCCCCCCCCC(=O)OC
inactive: [5] 105 % of control | [6] 98 % of control | [8] 101 % of control | [7] 93 % of control | [9] 97 % of control | [15] 98 % of control

NP(=O)(OCCCOCc1ccccc1)N(CCCl)CCCl (configuration not stated)
inactive: dose: 125.0 mg/kg/injection, schedule: Q01DX001 (ip), vehicle: saline 103 % of control | dose: 250.0 mg/kg/injection, schedule: Q01DX001 (ip), vehicle: saline 108 % of control | dose: 500.0 mg/kg/injection, schedule: Q01DX001 (ip), vehicle: saline 100 % of control

OCC1C2CCC(C2)C1CO (configuration not stated)
inactive: dose: 50.0 mg/kg/injection, schedule: Q01DX009 (ip), vehicle: saline with Tween-80 96 % of control
